Laboratory results: US11286248B2, “Pyrazine-2(1H)-ketone compound acting as FGFR inhibitor” (ZHANGZHOU PIEN TZE HUANG PHARMACEUTICAL CO., LTD., priority 2018, dated 2022)
Counter-ions that a name gives are not always drawn. Like-named read-outs stand apart in the source and are kept apart here.

Columns and labels:
human FGFR1 = molecular target: T1, human FGFR1 (Homo sapiens, UniProt P11362); assay: 33P isotope-labeled kinase activity test (Reaction Biology Corp), wild-type FGFR1; format: biochemical; details: 33P-ATP 5 μM, substrate pEY + Mn, 120 minutes at room temperature
T1 construct: purchased Invitrogen PV3146
T1 sequence (P11362 22-822): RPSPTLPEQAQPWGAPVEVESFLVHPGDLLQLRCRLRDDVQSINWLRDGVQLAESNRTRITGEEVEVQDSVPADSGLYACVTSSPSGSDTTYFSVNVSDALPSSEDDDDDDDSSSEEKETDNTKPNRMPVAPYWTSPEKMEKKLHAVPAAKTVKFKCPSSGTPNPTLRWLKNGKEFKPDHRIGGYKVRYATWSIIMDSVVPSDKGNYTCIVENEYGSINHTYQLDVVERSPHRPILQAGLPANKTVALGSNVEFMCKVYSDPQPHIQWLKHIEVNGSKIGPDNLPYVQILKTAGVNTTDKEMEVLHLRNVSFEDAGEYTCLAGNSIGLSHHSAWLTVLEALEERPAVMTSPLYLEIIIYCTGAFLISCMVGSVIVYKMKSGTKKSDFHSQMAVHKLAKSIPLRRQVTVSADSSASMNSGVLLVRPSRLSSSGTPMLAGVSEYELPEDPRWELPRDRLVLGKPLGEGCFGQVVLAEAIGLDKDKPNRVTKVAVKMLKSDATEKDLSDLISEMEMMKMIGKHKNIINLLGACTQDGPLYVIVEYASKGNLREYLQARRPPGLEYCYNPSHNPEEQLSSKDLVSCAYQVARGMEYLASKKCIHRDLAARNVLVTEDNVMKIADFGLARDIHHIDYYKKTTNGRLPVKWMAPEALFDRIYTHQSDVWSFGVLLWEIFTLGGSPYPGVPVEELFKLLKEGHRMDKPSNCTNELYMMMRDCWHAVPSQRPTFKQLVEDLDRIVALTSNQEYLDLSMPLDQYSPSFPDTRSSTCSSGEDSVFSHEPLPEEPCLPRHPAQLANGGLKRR
Description: (§1) The IC50 value is determined using ^33P isotope-labeled kinase activity test (Reaction Biology Corp) to evaluate the inhibitory ability of the compounds to be tested on human FGFR1 and FGFR4.
(§2) Buffer conditions: 20 mM 4-(2-hydroxyethyl)-1-piperazineethanesulfonic acid (Hepes) (pH 7.5), 10 mM MgCl2, 1 mM ethylene glycol-bis-(2-aminoethyl ether)tetraacetic acid (EGTA), 0.02% polyoxyethylene lauryl ether (Brij35), 0.02 mg/ml bovine serum albumin (BSA), 0.1 mM sodium vanadate (Na3VO4), 2 mM dithiothreitol (DTT), and 1% DMSO.
Test steps: At room temperature, the compounds to be tested are dissolved in DMSO to prepare a 10 mM solution for use. The substrate is dissolved in the newly prepared buffer, and the kinase to be tested is added and mixed well. The DMSO solution in which the compounds to be tested are dissolved is added to the above-mentioned homogeneous reaction solution using acoustic technology (Echo 550). […] After incubating for 15 minutes, ^33P-ATP (activity: 0.01 μCi/μl, with corresponding concentration being listed in table 1) is added to start the reaction. The supplier article number, batch number, and the concentration information in the reaction solution of FGFR1, FGFR4 and substrates thereof are listed in table 1. […] The kinase activity data is expressed by comparing the kinase activity of the groups containing the compounds to be tested with that of the blank group (containing only DMSO). The IC50 value is obtained by curve fitting using Prism4 software (GraphPad), and the experimental results are shown in table 2.

FGFR2 = molecular target: T2, FGFR2 (Homo sapiens, UniProt P21802); assay: 33P isotope-labeled kinase activity test (Reaction Biology Corp), wild-type FGFR2; format: biochemical
T2 construct: purchased Invitrogen PV3368
T2 sequence (P21802 22-821): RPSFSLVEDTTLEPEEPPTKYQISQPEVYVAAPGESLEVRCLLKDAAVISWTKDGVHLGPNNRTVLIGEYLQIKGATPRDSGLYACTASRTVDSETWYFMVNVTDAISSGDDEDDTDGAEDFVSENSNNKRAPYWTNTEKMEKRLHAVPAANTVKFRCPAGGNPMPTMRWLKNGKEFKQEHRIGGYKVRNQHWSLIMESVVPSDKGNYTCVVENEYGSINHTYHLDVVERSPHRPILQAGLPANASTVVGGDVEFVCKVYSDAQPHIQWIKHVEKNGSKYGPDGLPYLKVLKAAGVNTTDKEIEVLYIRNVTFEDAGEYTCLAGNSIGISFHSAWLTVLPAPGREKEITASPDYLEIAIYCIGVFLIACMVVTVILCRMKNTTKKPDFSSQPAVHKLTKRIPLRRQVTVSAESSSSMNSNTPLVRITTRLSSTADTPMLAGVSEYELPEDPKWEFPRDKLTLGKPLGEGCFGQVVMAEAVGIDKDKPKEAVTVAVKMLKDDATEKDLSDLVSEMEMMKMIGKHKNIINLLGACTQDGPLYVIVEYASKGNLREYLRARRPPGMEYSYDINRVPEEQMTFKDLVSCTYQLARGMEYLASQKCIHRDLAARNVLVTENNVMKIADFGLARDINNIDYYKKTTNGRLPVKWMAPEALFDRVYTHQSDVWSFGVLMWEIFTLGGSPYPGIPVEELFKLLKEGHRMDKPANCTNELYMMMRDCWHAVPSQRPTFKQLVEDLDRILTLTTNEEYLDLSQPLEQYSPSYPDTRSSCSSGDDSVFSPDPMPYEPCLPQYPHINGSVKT

[1] = Pharmacokinetic evaluation of compounds in mice; format: in vivo; details: CD-1 mouse (male), single gavage, plasma; for MRT last: read-out: MRT0-last
Description: Experimental purpose: testing pharmacokinetics of the compounds in mice
CD-1 mouse (male), vehicle (an aqueous solution of 0.5% (w/v) methylcellulose and 0.5% (v/v) Tween 80), and trfluoroacetate salt of compound 0027.
The animals in groups 1 and 2 are administrated […] of the compounds by single gavage, respectively, and the administration volume is 10 mL/kg.
Whole blood samples (30 μl) are collected at the prescribed time points (0.25, 0.5, 1, 2, 4, 6, 8, 24 h) by saphenous vein blood collection, and the actual blood collection time is recorded in the test record. The acceptable error of the collection time point is a time point within 1 hour of administration time ±1 minute, and the acceptable error of other time points is a theoretical time ±5%.
All blood samples are immediately transferred to labeled commercial centrifuge tubes containing K2-EDTA. After being collected, the blood samples are centrifuged at 3200 rpm/min for 10 minutes at 4° C. to aspirate the supernatant plasma, which is quickly placed in dry ice, and kept at −20° C. or a lower temperature for LC-MS/MS analysis.

FGFR3 = molecular target: T3, FGFR3 (Homo sapiens, UniProt P22607); assay: 33P isotope-labeled kinase activity test (Reaction Biology Corp), wild-type FGFR3; format: biochemical
T3 construct: purchased Invitrogen PV3145
T3 sequence (P22607 23-806): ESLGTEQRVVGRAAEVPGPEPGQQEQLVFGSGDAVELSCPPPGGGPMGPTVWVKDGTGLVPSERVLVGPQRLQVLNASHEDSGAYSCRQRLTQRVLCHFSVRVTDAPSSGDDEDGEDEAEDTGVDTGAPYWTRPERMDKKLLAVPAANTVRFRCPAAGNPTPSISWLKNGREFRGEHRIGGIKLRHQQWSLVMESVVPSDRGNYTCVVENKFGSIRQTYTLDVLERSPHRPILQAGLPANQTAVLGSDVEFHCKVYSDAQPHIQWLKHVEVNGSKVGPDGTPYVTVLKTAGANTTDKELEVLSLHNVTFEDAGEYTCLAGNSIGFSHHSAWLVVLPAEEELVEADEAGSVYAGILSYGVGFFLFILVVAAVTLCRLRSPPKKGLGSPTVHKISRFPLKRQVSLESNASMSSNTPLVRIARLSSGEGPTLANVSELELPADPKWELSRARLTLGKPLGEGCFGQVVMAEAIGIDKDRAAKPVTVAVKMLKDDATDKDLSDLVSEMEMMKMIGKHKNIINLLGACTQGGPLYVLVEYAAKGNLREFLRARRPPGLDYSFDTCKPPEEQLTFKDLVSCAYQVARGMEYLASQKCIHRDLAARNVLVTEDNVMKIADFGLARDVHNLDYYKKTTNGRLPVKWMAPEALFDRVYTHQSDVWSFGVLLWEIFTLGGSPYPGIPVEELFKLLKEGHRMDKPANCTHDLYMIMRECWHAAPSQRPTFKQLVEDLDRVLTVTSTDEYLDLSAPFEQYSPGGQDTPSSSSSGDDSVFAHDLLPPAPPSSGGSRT

human FGFR4 = molecular target: T4, human FGFR4 (Homo sapiens, UniProt P22455); assay: 33P isotope-labeled kinase activity test (Reaction Biology Corp), wild-type FGFR4; format: biochemical; details: 33P-ATP 2.5 μM, substrate pEY + Mn, 120 minutes at room temperature
T4 construct: purchased Invitrogen P3054
T4 sequence (P22455 22-802): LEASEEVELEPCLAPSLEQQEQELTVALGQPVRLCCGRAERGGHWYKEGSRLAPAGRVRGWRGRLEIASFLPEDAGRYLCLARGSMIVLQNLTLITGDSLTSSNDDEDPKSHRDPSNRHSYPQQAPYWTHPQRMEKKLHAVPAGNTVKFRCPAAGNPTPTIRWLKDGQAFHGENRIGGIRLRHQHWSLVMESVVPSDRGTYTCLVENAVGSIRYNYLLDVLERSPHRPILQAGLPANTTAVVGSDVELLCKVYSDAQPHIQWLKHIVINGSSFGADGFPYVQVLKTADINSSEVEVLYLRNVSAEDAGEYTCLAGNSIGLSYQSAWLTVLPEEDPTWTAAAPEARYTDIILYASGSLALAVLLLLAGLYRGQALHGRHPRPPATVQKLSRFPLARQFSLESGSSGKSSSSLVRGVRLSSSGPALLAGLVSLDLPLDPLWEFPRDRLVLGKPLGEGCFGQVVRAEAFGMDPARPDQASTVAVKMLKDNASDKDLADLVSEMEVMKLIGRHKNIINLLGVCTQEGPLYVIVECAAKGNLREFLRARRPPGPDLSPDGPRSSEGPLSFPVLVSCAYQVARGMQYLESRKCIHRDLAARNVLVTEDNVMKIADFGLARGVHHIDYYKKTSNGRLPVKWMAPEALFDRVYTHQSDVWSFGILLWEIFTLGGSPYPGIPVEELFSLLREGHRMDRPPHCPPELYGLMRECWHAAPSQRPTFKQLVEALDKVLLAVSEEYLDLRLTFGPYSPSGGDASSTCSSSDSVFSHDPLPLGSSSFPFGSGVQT
Description: as §1, §2
Test steps: At room temperature, the compounds to be tested are dissolved in DMSO to prepare a 10 mM solution for use. The substrate is dissolved in the newly prepared buffer, and the kinase to be tested is added and mixed well. The DMSO solution in which the compounds to be tested are dissolved is added to the above-mentioned homogeneous reaction solution using acoustic technology (Echo 550). […] After incubating for 15 minutes, ^33P-ATP (activity: 0.01 μCi/μl, with corresponding concentration being listed in table 1) is added to start the reaction. The supplier article number, batch number, and the concentration information in the reaction solution of FGFR1, FGFR4 and substrates thereof are listed in table 1. After the reaction is carried out at room temperature for 120 minutes, the reaction solution is spotted on P81 ion exchange filter paper (Whatman #3698-915). After the filter paper is repeatedly washed with 0.75% phosphoric acid solution, the radioactivity of the phosphorylated substrate remaining on the filter paper is measured. The kinase activity data is expressed by comparing the kinase activity of the groups containing the compounds to be tested with that of the blank group (containing only DMSO). The IC50 value is obtained by curve fitting using Prism4 software (GraphPad), and the experimental results are shown in table 2.

IC50 (human FGFR1): 2.12 nM | Selectivity FGFR1/2 (FGFR2; ratio of IC50 FGFR1 to IC50 FGFR2): 4.02 | IC50 (FGFR2; wild-type kinase, 33P-ATP 5 μM, substrate pEY + Mn, 120 minutes at room temperature): 0.53 nM | Tlast ([1]; 300 mpk): 24.0 h | AUC(0-inf) ([1]; po, 50 mg/kg, 50 mpk): 95.8 µM·h | AUC(0-t) ([1]; po, 50 mg/kg, 50 mpk): 85.8 µM·h | Cmax ([1]; po, 50 mg/kg, 50 mpk): 14.8 µM | Tmax ([1]; po, 50 mg/kg, 50 mpk): 1 h | half-life ([1]; po, 50 mg/kg, 50 mpk): 2.46 h | MRT inf ([1]; po, 50 mg/kg, 50 mpk, read-out: MRT0-inf): 5.39 h | MRT last ([1]; po, 50 mg/kg, 50 mpk): 4.33 h | AUC(0-t) ([1]; po, 300 mg/kg, 300 mpk): 699 µM·h | Cmax ([1]; po, 300 mg/kg, 300 mpk): 42.1 µM | Tmax ([1]; po, 300 mg/kg, 300 mpk): 7 h | MRT last ([1]; po, 300 mg/kg, 300 mpk): 11.1 h | Selectivity FGFR1/3 (FGFR3; ratio of IC50 FGFR1 to IC50 FGFR3): 3.06 | IC50 (FGFR3; wild-type kinase, 33P-ATP 30 μM, substrate pEY + Mn, 120 minutes at room temperature): 0.69 nM | IC50 (human FGFR4): 106 nM
SMILES: COc1cc(OC)c(Cl)c(-c2nc(-c3nc(-c4cn(C)nc4C)cnc3N)cn(C)c2=O)c1 [Trifluoroacetate salt of 0027]
